Results published in US9499495B2, “Quinazolines and azaquinazolines as dual inhibitors of RAS/RAF/MEK/ERK and PI3K/AKT/PTEN/mTOR pathways” (Asana Biosciences, LLC, priority 2013, dated 2016).

Assays:
B-RAFV600E = molecular target: T1, B-RAFV600E (Homo sapiens, UniProt P15056, V600E); experiment: B-RAFV600E radiometric assay; format: biochemical; conditions: read-out: Kinase assay B-Raf
T1 construct: purchased Millipore, USA 14-557
How it was run: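 B-RAFV600E was preincubated 45 min at rt with compound in 1% DMSO. MEK-K97M (0.5 μg), 5 μM final cold ATP and [γ-32P]ATP were then added for 2 h at rt. Phosphorylated MEK was captured on P81 paper and scintillation-counted; IC50 came from a sigmoidal dose-response fit.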

PI3Kα = molecular target: T2, PI3Kα (Homo sapiens, UniProt P42336); experiment: PI3 Kinase alpha TR-FRET assay; format: biochemical
T2 construct: made in house; host or cells: SF9 cells
T2 sequence (P42336 whole entry, species assumed): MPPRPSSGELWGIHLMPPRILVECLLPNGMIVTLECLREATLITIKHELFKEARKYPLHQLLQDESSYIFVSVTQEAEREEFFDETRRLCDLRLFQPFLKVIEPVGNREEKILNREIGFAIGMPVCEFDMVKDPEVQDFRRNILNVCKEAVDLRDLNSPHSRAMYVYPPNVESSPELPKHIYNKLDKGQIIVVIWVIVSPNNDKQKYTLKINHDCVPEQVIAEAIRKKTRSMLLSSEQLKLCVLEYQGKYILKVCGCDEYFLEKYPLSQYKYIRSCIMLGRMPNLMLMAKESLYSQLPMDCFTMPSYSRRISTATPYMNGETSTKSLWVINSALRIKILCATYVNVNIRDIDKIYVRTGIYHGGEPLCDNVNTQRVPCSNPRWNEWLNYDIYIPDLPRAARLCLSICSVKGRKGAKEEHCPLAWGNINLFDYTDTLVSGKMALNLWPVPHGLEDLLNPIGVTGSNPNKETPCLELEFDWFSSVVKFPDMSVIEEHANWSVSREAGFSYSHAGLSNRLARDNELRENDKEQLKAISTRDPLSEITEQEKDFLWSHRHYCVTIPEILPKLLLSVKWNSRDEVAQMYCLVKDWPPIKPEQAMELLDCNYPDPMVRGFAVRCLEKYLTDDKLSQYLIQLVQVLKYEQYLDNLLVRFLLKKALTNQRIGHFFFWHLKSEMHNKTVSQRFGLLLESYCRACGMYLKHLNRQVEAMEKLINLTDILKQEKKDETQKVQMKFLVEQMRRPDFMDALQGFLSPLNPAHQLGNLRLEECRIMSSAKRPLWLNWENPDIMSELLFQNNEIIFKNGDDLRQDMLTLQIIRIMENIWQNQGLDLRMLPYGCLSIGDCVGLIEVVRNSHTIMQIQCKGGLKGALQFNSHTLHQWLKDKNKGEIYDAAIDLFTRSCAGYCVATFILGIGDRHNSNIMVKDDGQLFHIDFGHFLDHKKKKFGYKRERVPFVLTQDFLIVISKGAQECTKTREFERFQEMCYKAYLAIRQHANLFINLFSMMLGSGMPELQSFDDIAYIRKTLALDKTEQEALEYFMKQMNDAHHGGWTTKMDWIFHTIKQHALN
T2 sequence (P27986 whole entry partner, species assumed): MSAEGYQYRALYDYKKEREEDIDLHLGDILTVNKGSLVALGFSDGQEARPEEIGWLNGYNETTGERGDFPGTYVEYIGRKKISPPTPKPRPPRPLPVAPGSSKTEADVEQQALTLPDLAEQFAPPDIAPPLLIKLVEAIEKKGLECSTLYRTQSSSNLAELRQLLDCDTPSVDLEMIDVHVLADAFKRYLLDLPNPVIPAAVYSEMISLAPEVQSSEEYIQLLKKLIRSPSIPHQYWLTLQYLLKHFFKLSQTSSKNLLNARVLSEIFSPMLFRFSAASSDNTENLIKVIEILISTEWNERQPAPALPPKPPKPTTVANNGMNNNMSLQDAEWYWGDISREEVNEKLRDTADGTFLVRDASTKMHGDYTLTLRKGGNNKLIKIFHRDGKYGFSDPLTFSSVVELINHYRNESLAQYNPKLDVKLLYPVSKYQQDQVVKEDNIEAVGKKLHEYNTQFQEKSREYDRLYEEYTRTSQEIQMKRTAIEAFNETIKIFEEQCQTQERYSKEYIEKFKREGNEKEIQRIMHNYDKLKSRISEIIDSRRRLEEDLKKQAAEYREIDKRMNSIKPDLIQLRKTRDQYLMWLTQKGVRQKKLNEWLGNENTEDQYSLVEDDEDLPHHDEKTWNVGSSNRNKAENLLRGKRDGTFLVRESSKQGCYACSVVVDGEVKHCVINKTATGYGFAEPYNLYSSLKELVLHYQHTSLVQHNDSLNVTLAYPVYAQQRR
How it was run: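 Purified Sf9-expressed p110/p85α (5 ng) was pre-incubated with compound and PIP2 at rt, then ATP was added (PIP2 and ATP both 40 μM) for a 30 min reaction. PIP3 was detected by TR-FRET displacement of biotin-PIP3, and IC50 was taken from dose-response curves of the 665/615 nm emission ratio.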

pERK in A375 cells = experiment: In Cell Western (ICW) assay, pERK in A375 cells; format: cell-based; conditions: Homo sapiens, A-375, 3 h treatment
How it was run: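 After a 3 h compound treatment at 37 °C, fixed RKO or A375 cells were probed for phospho-ERK1/2 (T202/Y204), phospho-S6RP or phospho-AKT T308 and detected with a Eu-tagged anti-rabbit antibody (ex 340/em 615 nm), with Hoechst signal as the cell-number correction. Inhibition was referenced to DMSO, and IC50 values came from sigmoidal dose-response curves.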

A375 cells = experiment: XTT assay for cell viability, A375 cells; format: cell-based; conditions: Homo sapiens, A-375, 72 h
How it was run: (§1)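 GI50 derived by sigmoidal dose-response fitting of proliferation normalised to DMSO control (100%). Readout: A450 after 2-3 h with XTT (1 mg/ml)/PMS (25 μM), following 72 h compound treatment at 37° C., 5% CO2 of cells plated at 1000-2000 per well the previous day.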

pERK in RKO cells = experiment: In Cell Western (ICW) assay, pERK in RKO cells; format: cell-based; conditions: Homo sapiens, 3 h treatment
Method: (§2) Cell lines A375, A2058 and RKO obtained from the ATCC as provided above, were grown, and after attaining ˜80% confluency were trypsinized, centrifuged and resuspended in fresh media. The cells were seeded at the specified density (20,000 to 50,000) in a 96-well format black-well clear bottom plate (Corning) and incubated overnight at 37° C. in a 5% CO2 incubator. The next day, compound dilutions of test compounds were prepared in 100% DMSO followed by dilutions in respective media. Treatment of test compounds was performed for 3 h at 37° C. in 5% CO2 incubator. Following 3 h drug treatment, the conditional media was discarded and the cells were washed once with cPBS (PBS containing 0.1% magnesium chloride hexahydrate and 0.1% anhydrous calcium chloride) and fixed with 4% paraformaldehyde in cPBS for 1 h at rt. After fixing, the cells were given three washes using cPBST (cPBS containing 0.1% Triton™ X-100 reagent) and then blocked using blocking solution (5% skimmed milk powder or 5% BSA prepared in cPBST) for 2 h at rt with shaking at 300 rpm. The cells were again washed thrice with cPBST and incubated with primary antibody phospho-p44/42 MAPK(Erk1/2)(Thr202/204) antibody (Cell Signaling, Catalog # 9101L), phospho S6 ribosomal protein (Cell Signaling, Catalog #4858L), phospho AKT (Thr 308) (Cell Signaling, Catalog #9275) or phospho AKT (Ser 473) (Cell Signaling, Catalog #4060L) in specified dilutions (1:500-1:2500), prepared in respective blocking solutions, in a racker overnight at 4° C. The next day, the cells were washed with 1× Delfia® wash buffer (4×1 wash) and incubated with secondary antibody (Delfia®-Eu-N1 labeled anti-rabbit antibody; PerkinElmer, Catalog #AD0105; dilutions: 1:2000 to 1:6000 in Delfia® assay buffer (PerkinElmer, Catalog #1244-111)) for 2 h at rt in the dark at 300 rpm. The cells were then given four washes with 1× Delfia® wash buffer and incubated with Wallac Delfia® Enhancement solution (100 μL; PerkinElmer, Catalog #1244-105) for 20 min at rt in the dark at 300 rpm. The fluorescence emission was then read at 615 nm with an excitation wavelength of 340 nm using a Victor V5 Fluorometer (Perkin Elmer, US). The cells were then washed once with 1×cPBS and incubated with 100 μL of 0.5 mg/mL of Hoechst 33258 dye prepared in cPBS and read at 460 nm with 355 nm excitation, thereby evaluating the correction factor.
(§3) The % inhibition for the test compounds of formula (I) (new chemical entities (NCEs)) was calculated keeping DMSO control as 0% and the IC50 values were determined using sigmoidal dose response curve fit in GraphPad Prism® v5 software.

pAKT (T308) in RKO cells = experiment: In Cell Western (ICW) assay, pAKT-T308 in RKO cells; format: cell-based; conditions: Homo sapiens, 3 h treatment
Method: as §2, §3

RKO cells = experiment: XTT assay for cell viability, RKO cells; format: cell-based; conditions: Homo sapiens, 72 h
How it was run: as §1

mTOR kinase = molecular target: T3, mTOR kinase (Homo sapiens, UniProt P42345); experiment: mTOR kinase TR-FRET assay; format: biochemical
T3 construct: purchased Millipore, US
T3 sequence (P42345 1362-2549 limits assumed): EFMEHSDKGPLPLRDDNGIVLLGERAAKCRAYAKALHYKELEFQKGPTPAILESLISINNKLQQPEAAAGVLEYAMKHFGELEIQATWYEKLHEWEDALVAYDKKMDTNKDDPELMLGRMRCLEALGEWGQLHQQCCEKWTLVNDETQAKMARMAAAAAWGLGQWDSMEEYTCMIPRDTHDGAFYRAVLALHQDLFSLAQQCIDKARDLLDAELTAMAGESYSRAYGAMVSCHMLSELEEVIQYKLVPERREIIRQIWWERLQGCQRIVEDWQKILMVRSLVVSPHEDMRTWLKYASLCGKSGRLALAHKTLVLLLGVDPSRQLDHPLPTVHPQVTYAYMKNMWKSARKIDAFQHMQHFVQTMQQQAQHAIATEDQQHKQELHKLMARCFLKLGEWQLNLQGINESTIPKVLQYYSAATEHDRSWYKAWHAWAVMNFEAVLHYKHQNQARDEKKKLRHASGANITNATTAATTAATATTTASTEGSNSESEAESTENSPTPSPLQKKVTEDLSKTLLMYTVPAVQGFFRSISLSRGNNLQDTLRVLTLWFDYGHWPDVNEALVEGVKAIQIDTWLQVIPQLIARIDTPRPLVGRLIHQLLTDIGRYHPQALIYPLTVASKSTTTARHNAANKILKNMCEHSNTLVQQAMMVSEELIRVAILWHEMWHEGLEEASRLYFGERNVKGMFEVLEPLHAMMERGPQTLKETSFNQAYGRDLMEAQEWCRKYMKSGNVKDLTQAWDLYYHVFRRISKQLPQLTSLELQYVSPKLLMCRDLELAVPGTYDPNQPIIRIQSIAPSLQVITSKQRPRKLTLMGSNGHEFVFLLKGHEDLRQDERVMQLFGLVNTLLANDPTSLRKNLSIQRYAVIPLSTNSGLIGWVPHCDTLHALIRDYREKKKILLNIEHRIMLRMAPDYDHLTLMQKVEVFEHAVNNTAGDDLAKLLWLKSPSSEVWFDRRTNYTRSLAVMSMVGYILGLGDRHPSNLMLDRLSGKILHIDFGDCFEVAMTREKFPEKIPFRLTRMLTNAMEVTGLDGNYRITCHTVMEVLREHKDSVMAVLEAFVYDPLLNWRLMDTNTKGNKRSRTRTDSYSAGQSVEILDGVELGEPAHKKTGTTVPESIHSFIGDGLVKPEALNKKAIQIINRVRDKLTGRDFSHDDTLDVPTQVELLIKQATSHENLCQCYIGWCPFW
How it was run: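 TR-FRET with ULight-p70 S6K (Thr 389) peptide (50 nM) and 20 μM ATP in 50 mM HEPES pH 7.5, 1 mM EGTA, 3 mM MnCl2; compound pre-incubated with enzyme before substrate addition, reaction at rt, EDTA-stopped. Eu anti-phospho antibody read 665/615 nm; IC50 from sigmoidal dose-response fit.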

T1 sequence (P15056 416-766 V600E limits assumed): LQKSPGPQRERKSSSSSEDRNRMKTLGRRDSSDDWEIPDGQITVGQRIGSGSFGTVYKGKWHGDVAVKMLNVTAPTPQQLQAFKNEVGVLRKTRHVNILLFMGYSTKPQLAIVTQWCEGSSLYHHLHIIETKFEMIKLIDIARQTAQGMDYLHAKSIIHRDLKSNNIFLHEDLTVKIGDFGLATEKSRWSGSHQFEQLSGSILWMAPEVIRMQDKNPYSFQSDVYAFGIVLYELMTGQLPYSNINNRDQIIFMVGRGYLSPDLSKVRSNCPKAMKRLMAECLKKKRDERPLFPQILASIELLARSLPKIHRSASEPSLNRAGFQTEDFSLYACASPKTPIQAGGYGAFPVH

Row | SMILES | IC50 (B-RAFV600E) [nM] | IC50 (PI3Kα) [nM] | IC50 (pERK in A375 cells) [nM] | IC50 (A375 cells) [nM] | IC50 (pERK in RKO cells) [nM] | IC50 (pAKT (T308) in RKO cells) [nM] | IC50 (mTOR kinase) [nM] | IC50 (RKO cells) [nM]
1 | Nc1ncc(-c2nc(N3CCOCC3)c3nc(-c4cccc(NS(=O)(=O)CCCF)c4F)ccc3n2)c(C(F)(F)F)n1 [Example 100, N-(3-(2-(2-amino-4-(trifluoromethyl)pyrimidin-5-yl)-4-morpholinopyrido[3,2-d]pyrimidin-6-yl)-2-fluorophenyl)-3-fluoropropane-1-sulfonamide] | 1 to 100 | 1 to 100 | 100 to 1000 | 100 to 1000 | 1 to 100 | 100 to 1000 |  | 100 to 1000
2 | Nc1ncc(-c2nc(N3CCOCC3)c3nc(-c4cccc(NS(=O)(=O)CCCF)c4F)ccc3n2)cc1Cl [Example 103, N-(3-(2-(6-amino-5-chloropyridin-3-yl)-4-morpholinopyrido[3,2-d]pyrimidin-6-yl)-2-fluorophenyl)-3-fluoropropane-1-sulfonamide] | 1 to 100 | 100 to 1000 | 100 to 1000 |  |  | 1000 to 10000 |  | 1000 to 10000
3 | Nc1ncc(-c2nc(N3CCOCC3)c3nc(-c4cccc(NS(=O)(=O)CCCF)c4F)ccc3n2)cc1F [Example 105, N-(3-(2-(6-amino-5-fluoropyridin-3-yl)-4-morpholinopyrido[3,2-d]pyrimidin-6-yl)-2-fluorophenyl)-3-fluoropropane-1-sulfonamide] | 1 to 100 | 1 to 100 | 100 to 1000 | 100 to 1000 | 100 to 1000 | 1000 to 10000 |  | 1000 to 10000

The next lines start with results.

Row | IC50 (B-RAFV600E) [nM] | IC50 (PI3Kα) [nM] | IC50 (pERK in A375 cells) [nM] | IC50 (A375 cells) [nM] | IC50 (pERK in RKO cells) [nM] | IC50 (pAKT (T308) in RKO cells) [nM] | IC50 (mTOR kinase) [nM] | SMILES | IC50 (RKO cells) [nM]
4 | 1 to 100 | 1 to 100 | 1 to 100 | 100 to 1000 | 100 to 1000 | 1000 to 10000 |  | Cc1nc(N)ncc1-c1nc(N2CCOCC2)c2nc(-c3cccc(NS(=O)(=O)CCCF)c3F)ccc2n1 [Example 109] | 
5 | 1 to 100 |  | 100 to 1000 | 100 to 1000 | 100 to 1000 | 100 to 1000 | 1 to 100 | CNC(=O)Nc1ccc(-c2nc(N3CCOCC3)c3nc(-c4cccc(NS(=O)(=O)CCCF)c4F)ccc3n2)cc1 [Example 139, 3-fluoro-N-(2-fluoro-3-(2-(4-(3-methylureido)phenyl)-4-morpholinopyrido[3,2-d]pyrimidin-6-yl)phenyl)propane-1-sulfonamide] | 100 to 1000
